Activity calls are given as the source filed them. The rule behind the calls is not given here.
Biological target: T1, Tyrosine-protein kinase Lck (Homo sapiens, UniProt P06239)
Target sequence in this assay (P06239 whole entry): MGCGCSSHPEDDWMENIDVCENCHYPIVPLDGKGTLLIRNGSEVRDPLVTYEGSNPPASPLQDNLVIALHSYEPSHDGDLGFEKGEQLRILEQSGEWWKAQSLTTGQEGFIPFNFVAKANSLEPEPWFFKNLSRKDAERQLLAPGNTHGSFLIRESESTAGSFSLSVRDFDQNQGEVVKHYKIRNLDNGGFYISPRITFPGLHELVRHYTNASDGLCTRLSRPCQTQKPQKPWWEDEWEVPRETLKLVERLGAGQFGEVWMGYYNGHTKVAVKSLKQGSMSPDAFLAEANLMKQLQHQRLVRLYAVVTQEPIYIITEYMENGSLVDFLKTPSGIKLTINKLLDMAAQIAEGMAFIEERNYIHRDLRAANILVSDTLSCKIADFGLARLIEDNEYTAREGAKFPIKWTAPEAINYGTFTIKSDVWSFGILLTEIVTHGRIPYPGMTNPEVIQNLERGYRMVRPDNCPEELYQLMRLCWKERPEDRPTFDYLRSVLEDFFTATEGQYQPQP

| Compound | IC50 |
| --- | --- |
| COc1cc(O)c2c(c1)CCCC(O)[C@H](O)C(=O)/C=C\C[C@H](C)OC2=O (single isomer, unassigned) | 750 nM |
| COc1cc(O)c2c(c1)/C=C/C[C@@H](O)[C@H](O)C(=O)CCC[C@H](C)OC2=O [DIHYDROXYMETHYLZEARALENONE] | 200 nM |

System: not listed separately
Test: Inhibition of MAPK

| Compound | IC50 |
| --- | --- |
| COc1cc(O)c2c(c1)CCCC(O)[C@H](O)C(=O)/C=C\C[C@H](C)OC2=O (single isomer, unassigned) | 4 nM |

Biological target: T1, Tyrosine-protein kinase Lck
Test: Inhibition of LCK at 10 uM
Target sequence in this assay (P06239 2-509 limits assumed): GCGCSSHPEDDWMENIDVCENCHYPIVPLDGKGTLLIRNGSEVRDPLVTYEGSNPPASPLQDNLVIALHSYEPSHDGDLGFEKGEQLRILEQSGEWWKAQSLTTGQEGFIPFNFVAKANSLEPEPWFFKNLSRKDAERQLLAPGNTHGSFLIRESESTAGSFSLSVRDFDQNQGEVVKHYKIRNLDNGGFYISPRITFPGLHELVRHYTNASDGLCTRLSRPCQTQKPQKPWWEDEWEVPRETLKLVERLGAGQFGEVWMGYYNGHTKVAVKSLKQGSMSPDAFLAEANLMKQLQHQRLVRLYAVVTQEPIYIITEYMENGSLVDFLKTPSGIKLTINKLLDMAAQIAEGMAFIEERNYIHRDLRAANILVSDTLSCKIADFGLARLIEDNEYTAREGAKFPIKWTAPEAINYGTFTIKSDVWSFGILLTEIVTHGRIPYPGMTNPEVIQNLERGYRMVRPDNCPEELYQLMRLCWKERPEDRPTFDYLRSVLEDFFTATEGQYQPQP

| Compound | Activity |
| --- | --- |
| COc1cc(O)c2c(c1)/C=C/CC(=O)NCCCCNC(=O)CCC[C@H](C)OC2=O | inactive |
| COc1cc(O)c2c(c1)/C=C/CC(=O)NCCCCCCCNC(=O)CCC[C@H](C)OC2=O | inactive |
| COc1cc(O)c2c(c1)/C=C/CC(=O)NCCCOCCCCOCCCNC(=O)CCC[C@H](C)OC2=O | inactive |
| COc1cc(O)c2c(c1)/C=C/CC(=O)OCCCC(c1ccccc1)(C(O)c1ccccc1)CCCOC(=O)CCC[C@H](C)OC2=O (stereo not given in full) | inactive |
| COc1cc(O)c2c(c1)/C=C/CC(=O)NCCCN(C)CCCNC(=O)CCC[C@H](C)OC2=O | inactive |
| COc1cc(O)c2c(c1)/C=C/CC(=O)NCCCOCCCNC(=O)CCC[C@H](C)OC2=O | inactive |
| COc1cc(O)c2c(c1)/C=C/CC(=O)OCCCC(c1ccccc1)(C(C)O)CCCOC(=O)CCC[C@H](C)OC2=O (stereo not given in full) | inactive |

The remaining lines, values ahead:

| Activity | Compound |
| --- | --- |
| inactive | COc1cc(O)c2c(c1)/C=C/CC(=O)OCCCCOC(=O)CCC[C@H](C)OC2=O |
| inactive | COc1cc(O)c2c(c1)/C=C/CC(=O)OCCCCCCOC(=O)CCC[C@H](C)OC2=O |
| inactive | COc1cc(O)c2c(c1)/C=C/CC(=O)OCCOCC#CCOCCOC(=O)CCC[C@H](C)OC2=O |
| inactive | COc1cc(O)c2c(c1)/C=C/CC(=O)OCCCCCCCCOC(=O)CCC[C@H](C)OC2=O |
| inactive | COc1cc(O)c2c(c1)/C=C/CC(=O)OCCOC(=O)CCC[C@H](C)OC2=O |
| inactive | COc1cc(O)c2c(c1)/C=C/CC(=O)OC/C=C(\C)CC/C=C(\C)COC(=O)CCC[C@H](C)OC2=O |
| inactive | COc1cc(O)c2c(c1)/C=C/CC(=O)OC/C=C\COC(=O)CCC[C@H](C)OC2=O |
| inactive | COc1cc(O)c2c(c1)/C=C/CC(=O)OCCCOCCCOC(=O)CCC[C@H](C)OC2=O |
| inactive | COc1cc(O)c2c(c1)/C=C/CC(=O)OCCC1(CCCCC1)CCOC(=O)CCC[C@H](C)OC2=O |
| inactive | COc1cc(O)c2c(c1)/C=C/CC(=O)OCc1cccc(c1)COC(=O)CCC[C@H](C)OC2=O |

Source: ChEMBL document CHEMBL1136873, “Application of combinatorial biocatalysis for a unique ring expansion of dihydroxymethylzearalenone” (Bioorg Med Chem Lett, 2009)
